According to paper PMC9961271, “Inhibitory Effects of a Novel μ-Opioid Receptor Nonpeptide Antagonist, UD-030, on Morphine-Induced Conditioned Place Preference” (International Journal of Molecular Sciences, 2023):
Structures can show the parent of a compound that is named as a salt.

Experiments:
human MOP [1] = molecular target: T1, human MOP (Homo sapiens, UniProt P35372); assay: [35S]-GTPγS binding assay, hMOP/CHO membranes; format: biochemical
C57BL/6J mice [2] = assay: Acquisition of morphine-induced conditioned place preference; format: in vivo, male C57BL/6J mice; settings: for time spent in the drug-paired compartment, preconditioning / time spent in the drug-paired compartment, postconditioning: n = 8; for morphine-induced CPP score compared with the vehicle-pretreated group: Dunnett's test
Method: (§1) For the pharmacokinetic and pharmacological studies, morphine hydrochloride (Takeda Pharma, Osaka, Japan) was dissolved and diluted in saline and administered intraperitoneally (i.p.) in a volume of 10 mL/kg body weight. […] All experiments were conducted with a dose of morphine (10 mg/kg) that is sufficient to elicit CPP.
(§2) Male Crl:CD1 (ICR) mice (Japan CLEA, Tokyo, Japan) were used at 5 weeks of age for the pharmacokinetic analysis. Male C57BL/6J mice (Japan CLEA) were used at 7 weeks of age for the behavioral analyses. The mice were housed 4–6 per cage in an environment at 23 °C ± 1 °C and 50% ± 5% humidity with free access to food and water under a 12 h/12 h light/dark cycle. All experiments were performed with approval from the Institutional Animal Care and Use Committee at the Tokyo Metropolitan Institute of Medical Science.
(§3) The CPP test was performed using a two-compartment Plexiglas chamber. […] For the preconditioning and postconditioning phases, a T-style division with double 60 mm × 60 mm openings allowed the mice to access both compartments. During the conditioning phases, the openings were eliminated to restrict the mice to one of the compartments. The CPP apparatus was placed in a sound-attenuated, light-controlled box. On day 1 (preconditioning: habituation) and day 2 (preconditioning: pretest), the mice freely explored the two compartments for 900 s, and the time spent in each compartment during the exploratory period and locomotor activity were measured using an infrared detector (Neuroscience, Osaka, Japan). We selected a counterbalanced protocol to nullify each mouse’s initial preference as discussed previously. […] Conditioning was conducted once daily for 4 consecutive days (days 3–6). The mice were injected with morphine (10.0 mg/kg, i.p.) or saline and immediately confined to the black or white compartment for 60 min on day 3. On day 4, the mice were alternately injected with saline or drug and immediately confined to the opposite compartment for 60 min. On days 5 and 6, the same conditioning as on days 3 and 4 was repeated. The assignment of the mice to the conditioned compartment was performed randomly and counterbalanced across subjects. During the postconditioning phase on day 7, the time spent in each compartment was measured for 900 s. The CPP score was designated as the time spent in the drug-paired compartment on day 7 minus the time spent in the same compartment in the preconditioning phase on day 2.
(§4) The data were analyzed using two-way repeated-measures ANOVA followed by Sidak’s multiple-comparison post hoc test, one-way ANOVA followed by Dunnett’s multiple-comparison post hoc test, or Student’s t-test using GraphPad Prism software. Values of p < 0.05 were considered statistically significant.

C57BL/6J mice [3] = assay: Expression of morphine-induced conditioned place preference; format: in vivo, male C57BL/6J mice; settings: for time spent in the morphine-paired compartment, preconditioning / time spent in the morphine-paired compartment, postconditioning: n = 8; for morphine-induced CPP score compared with the vehicle-treated control group: 10 mg/kg p.o. before the postconditioning phase, Dunnett's test, UD-030 p = 0.038, NTX p = 0.042; for sedative effects (number of transitions between compartments): 10 mg/kg p.o., postconditioning phase
Method: as §1, §2, §3, §4

human MOP [4] = molecular target: T1, human MOP; assay: Competitive radioligand binding assay, hMOP/CHO membranes
human DOP [5] = molecular target: T2, human DOP (Homo sapiens, UniProt P41143); assay: Competitive radioligand binding assay, hDOP/CHO membranes
human KOP [6] = molecular target: T3, human KOP (Homo sapiens, UniProt P41145); assay: Competitive radioligand binding assay, hKOP/CHO membranes
human NOP [7] = molecular target: T4, human NOP (Homo sapiens, UniProt P41146); assay: Competitive radioligand binding assay, hNOP/CHO membranes
human DOP [8] = molecular target: T2, human DOP; assay: [35S]-GTPγS binding assay, hDOP/CHO membranes; format: biochemical
human KOP [9] = molecular target: T3, human KOP; assay: [35S]-GTPγS binding assay, hKOP/CHO membranes; format: biochemical
human NOP [10] = molecular target: T4, human NOP; assay: [35S]-GTPγS binding assay, hNOP/CHO membranes; format: biochemical
[11] = Pharmacokinetics after a single oral administration (plasma, LC-MS/MS); settings: male, Crl:CD1 (ICR), mouse; for concentration at 0.5 h / concentration at 1 h / concentration at 2 h / concentration at 4 h / concentration at 8 h / concentration at 24 h: in vivo; for AUC(0-t) / Cmax / Tmax: plasma; for Tmax: mice
[12] = 10 mg/kg p.o. 60 min before each morphine treatment (10 mg/kg, i.p.)
[13] = 10 mg/kg p.o. before each morphine treatment, UD-030 p < 0.001, NTX p = 0.003
[14] = 10 mg/kg p.o. 60 min before the postconditioning phase
[15] = 3 mg/kg p.o. 60 min before each morphine treatment (10 mg/kg, i.p.)

Work on `C[C@@H](NC(=O)[C@@H](N)Cc1ccc(O)cc1)C(=O)NCC(=O)N(C)[C@@H](Cc1ccccc1)C(=O)NCCO` [DAMGO, reference compound] yielded an Emax (human MOP [1]; hMOP/CHO, read-out: maximal effect (agonistic activity)) greater than 95%.
In the case of `CN1CC[C@]23c4c5ccc(O)c4O[C@H]2[C@@H](O)C=C[C@H]3[C@H]1C5` [Morphine, morphine hydrochloride], the “time spent in the drug-paired compartment, preconditioning” value (C57BL/6J mice [2]; morphine 10 mg/kg i.p. conditioning, vehicle-pretreated control mice) is reported as 443.1 ± 33.2 s, the “time spent in the drug-paired compartment, postconditioning” value (C57BL/6J mice [2]; morphine 10 mg/kg i.p. conditioning, vehicle-pretreated control mice, p < 0.001 vs pre) is reported as 554.4 ± 31.8 s and the “time spent in the morphine-paired compartment, preconditioning” value (C57BL/6J mice [3]; morphine 10 mg/kg i.p. conditioning, vehicle-treated control mice) is reported as 443.6 ± 34.4 s. The “time spent in the morphine-paired compartment, postconditioning” value (C57BL/6J mice [3]; morphine 10 mg/kg i.p. conditioning, vehicle-treated control mice, p < 0.001 vs pre) was 554.4 ± 29.7 s.
With `O=C1CC[C@@]2(O)[C@H]3Cc4ccc(O)c5c4[C@@]2(CCN3CC2CC2)[C@H]1O5` [NTX, naltrexone, reference compound] the “time spent in the drug-paired compartment, postconditioning” value (C57BL/6J mice [2]; [12]) was 436.5 ± 49.7 s, the “time spent in the drug-paired compartment, preconditioning” value (C57BL/6J mice [2]; [12]) was 437.0 ± 38.1 s and the “morphine-induced CPP score compared with the vehicle-pretreated group” value (C57BL/6J mice [2]; [13]) was “significantly lower”. For the same compound, the “time spent in the morphine-paired compartment, postconditioning” value (C57BL/6J mice [3]; [14]) was 474.1 ± 29.9 s, the “time spent in the morphine-paired compartment, preconditioning” value (C57BL/6J mice [3]; [14]) was 441.6 ± 33.0 s and the “morphine-induced CPP score compared with the vehicle-treated control group” value (C57BL/6J mice [3]) was “significantly decreased”. The “sedative effects (number of transitions between compartments)” value (C57BL/6J mice [3]) was “did not exert sedative effects”.
In the case of `CC[C@]1(c2cc(NS(=O)(=O)C3CC3)ccc2F)[C@@H]2CN(CC3(O)Cc4ccccc4C3)C[C@@H]21` [UD-030], the Ki (human MOP [4]) is reported as 0.0031 µM, the Ki (human DOP [5]) is reported as 1.8 µM and the Ki (human KOP [6]) is reported as 0.46 µM. For the same compound, the Ki (human NOP [7]) was 1.8 µM, the EC50 (human MOP [1]) was greater than 10 µM and the IC50 (human MOP [1]) was 0.0017 µM. For the same compound, the maximal inhibitory effect (human MOP [1]; against DAMGO) was greater than 95%, the “stimulation of [35S]-GTPγS binding” value (human MOP [1]; high concentration (10 µM)) was “did not stimulate” and the EC50 (human DOP [8]) was greater than 10 µM. For the same compound, the IC50 (human DOP [8]) was 0.85 µM, the maximal inhibitory effect (human DOP [8]; against DPDPE) was greater than 95% and the “stimulation of [35S]-GTPγS binding” value (human DOP [8]; high concentration (10 µM)) was “did not stimulate”. For the same compound, the EC50 (human KOP [9]) was greater than 10 µM, the IC50 (human KOP [9]) was 0.085 µM and the maximal inhibitory effect (human KOP [9]; against U-69593) was greater than 95%. The “stimulation of [35S]-GTPγS binding” value (human KOP [9]; high concentration (10 µM)) was “did not stimulate”, the EC50 (human NOP [10]) was greater than 10 µM and the IC50 (human NOP [10]) was 0.33 µM. The maximal inhibitory effect (human NOP [10]; against nociceptin) was greater than 95%, the “stimulation of [35S]-GTPγS binding” value (human NOP [10]; high concentration (10 µM)) was “did not stimulate” and the “time spent in the drug-paired compartment, postconditioning” value (C57BL/6J mice [2]; [15]) was 470.6 ± 16.5 s. The “time spent in the drug-paired compartment, preconditioning” value (C57BL/6J mice [2]; [15]) was 445.2 ± 18.9 s, the “morphine-induced CPP score compared with the vehicle-pretreated group” value (C57BL/6J mice [2]; 3 mg/kg p.o. before each morphine treatment, p = 0.023) was “significantly lower” and the “time spent in the drug-paired compartment, postconditioning” value (C57BL/6J mice [2]; [12]) was 392.8 ± 42.3 s. The “time spent in the drug-paired compartment, preconditioning” value (C57BL/6J mice [2]; [12]) was 434.9 ± 30.5 s, the “morphine-induced CPP score compared with the vehicle-pretreated group” value (C57BL/6J mice [2]; [13]) was “significantly lower” and the “time spent in the morphine-paired compartment, preconditioning” value (C57BL/6J mice [3]; 3 mg/kg p.o. 60 min before the postconditioning phase) was 466.8 ± 20.7 s. The “time spent in the morphine-paired compartment, postconditioning” value (C57BL/6J mice [3]; 3 mg/kg p.o. 60 min before the postconditioning phase, p = 0.012 vs pre) was 536.5 ± 24.8 s, the “time spent in the morphine-paired compartment, postconditioning” value (C57BL/6J mice [3]; [14]) was 492.4 ± 32.8 s and the “time spent in the morphine-paired compartment, preconditioning” value (C57BL/6J mice [3]; [14]) was 461.3 ± 20.0 s. For the same compound, the “morphine-induced CPP score compared with the vehicle-treated control group” value (C57BL/6J mice [3]) was “significantly decreased”, the “sedative effects (number of transitions between compartments)” value (C57BL/6J mice [3]) was “did not exert sedative effects” and the “behavioral abnormalities during the session” value (C57BL/6J mice [3]; high-dose (10 mg/kg, p.o.)) was “No other notable behavioral abnormalities”. The concentration at 0.5 h ([11]; 0.5 mg/kg) was 1.09 ± 0.4 ng/mL, the concentration at 1 h ([11]; 0.5 mg/kg) was 2.86 ± 1.6 ng/mL and the concentration at 2 h ([11]; 0.5 mg/kg) was 2.96 ± 0.3 ng/mL. It also gave a concentration at 4 h ([11]; 0.5 mg/kg) of 4.61 ± 1.9 ng/mL, a concentration at 8 h ([11]; 0.5 mg/kg) of 4.95 ± 0.9 ng/mL and a concentration at 24 h ([11]; 0.5 mg/kg) of 0.231 ng/mL. It also gave a concentration at 0.5 h ([11]; 1 mg/kg) of 4.76 ± 1.9 ng/mL, a concentration at 1 h ([11]; 1 mg/kg) of 6.98 ± 1.7 ng/mL and a concentration at 2 h ([11]; 1 mg/kg) of 14.9 ± 0.9 ng/mL. It also gave a concentration at 4 h ([11]; 1 mg/kg) of 11.5 ± 2.9 ng/mL, a concentration at 8 h ([11]; 1 mg/kg) of 10.9 ± 2.1 ng/mL and a concentration at 24 h ([11]; 1 mg/kg) of 0.358 ng/mL. For the same compound, the concentration at 0.5 h ([11]; 2 mg/kg) was 11.8 ± 5.4 ng/mL, the concentration at 1 h ([11]; 2 mg/kg) was 25.5 ± 2.2 ng/mL and the concentration at 2 h ([11]; 2 mg/kg) was 36.1 ± 8.3 ng/mL. For the same compound, the concentration at 4 h ([11]; 2 mg/kg) was 26.7 ± 3.3 ng/mL, the concentration at 8 h ([11]; 2 mg/kg) was 18.8 ± 9.2 ng/mL and the concentration at 24 h ([11]; 2 mg/kg) was 0.35 ng/mL. The concentration at 0.5 h ([11]; 4 mg/kg) was 27.7 ± 24 ng/mL, the concentration at 1 h ([11]; 4 mg/kg) was 119 ± 35 ng/mL and the concentration at 2 h ([11]; 4 mg/kg) was 72.7 ± 18 ng/mL. It also gave a concentration at 4 h ([11]; 4 mg/kg) of 103 ± 15 ng/mL, a concentration at 8 h ([11]; 4 mg/kg) of 69.4 ± 10 ng/mL and a concentration at 24 h ([11]; 4 mg/kg) of 0.395 ± 0.1 ng/mL. The AUC(0-t) ([11]; 0.5 mg/kg) was 72.3 ng·h/mL, the Cmax ([11]; 0.5 mg/kg) was 4.95 ng/mL and the Tmax ([11]; 0.5 mg/kg, Tmax, 0.5 mg/kg p.o.) was 8 h. The AUC(0-t) ([11]; 1 mg/kg) was 176 ng·h/mL, the Cmax ([11]; 1 mg/kg) was 14.9 ng/mL and the Tmax ([11]; 1 mg/kg, Tmax, 1 mg/kg p.o.) was 2 h. The AUC(0-t) ([11]; 2 mg/kg) was 350 ng·h/mL, the Cmax ([11]; 2 mg/kg) was 36.1 ng/mL and the Tmax ([11]; 2 mg/kg, Tmax, 2 mg/kg p.o.) was 2 h. For the same compound, the AUC(0-t) ([11]; 4 mg/kg) was 1220 ng·h/mL, the Cmax ([11]; 4 mg/kg) was 119 ng/mL and the Tmax ([11]; 4 mg/kg, Tmax, 4 mg/kg p.o.) was 1 h. It also gave a Tmax ([11]; 4 mg/kg, time to reach the maximum plasma concentration (Tmax), over the doses 0.5, 1, 2 and 4 mg/kg p.o.) of 1 to 8 h.
